# Test results taken from patent US8916498B2, “Safening 6-(trisubstituted phenyl)-4-amino-2-pyridinecarboxylate herbicide injury on direct seeded and transplanted paddy rice” (priority 2008, dated 2014).
# Columns and labels:
# [1] = system: ORYSA (rice); assay: Postemergence herbicidal safening in direct seeded rice, visual injury; settings: for ‘M202’ ORYSA Visual Injury (%) Obs: Safener Alone, 560 g ai/ha; for ‘M202’ ORYSA Visual Injury (%) Obs / Visual Injury (%) ‘Lemont’ ORYSA Obs: after 3 weeks
# Description: A=observed efficacy of active ingredient A at the same concentration as used in the mixture.
# B=observed efficacy of active ingredient B at the same concentration as used in the mixture.
# [2] = system: CYPDI; assay: Postemergence herbicidal safening in direct seeded rice, visual injury on weed; assay type: in vivo; settings: alone, after 3 weeks
# [3] = system: ECHCO; assay: as above; assay type: in vivo; settings: alone, after 3 weeks
# [4] = system: SEBEX; assay: as above; assay type: in vivo; settings: alone, after 3 weeks
# [5] = alone, 8.75 g ae/ha, after 3 weeks (Table 14)
# [6] = No safener, 35 g ai/ha, after 3 weeks (Table 13)
# [7] = alone, 70 g ae/ha, after 3 weeks (Table 14)
smiles,measurement,setting,value
C#CCOC(=O)c1nc(-c2ccc(Cl)c(OC)c2F)cc(N)c1Cl [Compound 1 Propargyl Ester],ORYSA Visual Injury (%) ‘Cheniere’ Obs,[1]; [5],55%
same,ORYSA Visual Injury (%) ‘Clearfield’ Obs,[1]; [5],50%
same,ORYSA Visual Injury (%) ‘Cocodrie’ Obs,[1]; [5],35%
same,ORYSA Visual Injury (%) ‘Lemont’ Obs,[1]; [5],30%
same,ORYSA Visual Injury (%) ‘M202’ Obs,[1]; [5],55%
same,ORYSA Visual Injury (%) ‘Wells’ Obs,[1]; [5],10%
CCCCOC(=O)c1nc(-c2ccc(Cl)c(OC)c2F)cc(N)c1Cl [Compound 1 n-Butyl Ester],ORYSA Visual Injury (%) ‘Cheniere’ Obs,[1]; [6],25%
same,ORYSA Visual Injury (%) ‘Cocodrie’ Obs,[1]; [6],20%
same,ORYSA Visual Injury (%) ‘M202’ Obs,[1]; [6],28%
CCCOC(=O)c1nc(-c2ccc(Cl)c(OC)c2F)cc(N)c1Cl [Compound 1 n-Propyl Ester],ORYSA Visual Injury (%) ‘Cheniere’ Obs,[1]; [7],45%
same,ORYSA Visual Injury (%) ‘Clearfield’ Obs,[1]; [7],60%
same,ORYSA Visual Injury (%) ‘Cocodrie’ Obs,[1]; [7],45%
same,ORYSA Visual Injury (%) ‘Lemont’ Obs,[1]; [7],35%
same,ORYSA Visual Injury (%) ‘M202’ Obs,[1]; [7],55%
same,ORYSA Visual Injury (%) ‘Wells’ Obs,[1]; [7],15%
"Cc1ccc(NC(=O)NC(C)(C)c2ccccc2)cc1 [Daimuron, N-(4-methylphenyl)-N′-(1-methyl-1-phenylethyl)-urea]",Visual Injury (%) CYPDI Obs,[2]; 35 g ai/ha,0%
same,Visual Injury (%) CYPDI Obs,[2]; 70 g ai/ha,0%
same,Visual Injury (%) CYPDI Obs,[2]; 140 g ai/ha,0%
same,Visual Injury (%) CYPDI Obs,[2]; 280 g ai/ha,0%
same,Visual Injury (%) ECHCO Obs,[3]; 35 g ai/ha,5%
same,Visual Injury (%) ECHCO Obs,[3]; 70 g ai/ha,0%
same,Visual Injury (%) ECHCO Obs,[3]; 140 g ai/ha,0%
same,Visual Injury (%) ECHCO Obs,[3]; 280 g ai/ha,10%
same,‘M202’ ORYSA Visual Injury (%) Obs,[1],3.3%
same,Visual Injury (%) ‘Lemont’ ORYSA Obs,"[1]; alone, 35 g ai/ha",0%
same,Visual Injury (%) ‘Lemont’ ORYSA Obs,"[1]; alone, 70 g ai/ha",0%
same,Visual Injury (%) ‘Lemont’ ORYSA Obs,"[1]; alone, 140 g ai/ha",0%
same,Visual Injury (%) ‘Lemont’ ORYSA Obs,"[1]; alone, 280 g ai/ha",0%
same,Visual Injury (%) SEBEX Obs,[4]; 35 g ai/ha,0%
same,Visual Injury (%) SEBEX Obs,[4]; 70 g ai/ha,0%
same,Visual Injury (%) SEBEX Obs,[4]; 140 g ai/ha,0%
same,Visual Injury (%) SEBEX Obs,[4]; 280 g ai/ha,0%
C=CCN(CC=C)C(=O)C(Cl)Cl [Dichlormid],ORYSA Visual Injury (%) ‘Cheniere’ Obs,[1]; safener 140 g ai/ha alone,0%
same,ORYSA Visual Injury (%) ‘Cocodrie’ Obs,[1]; safener 140 g ai/ha alone,0%
same,ORYSA Visual Injury (%) ‘Lemont’ Obs,[1]; safener 140 g ai/ha alone,0%
CC(C)(SC(=O)N1CCCCC1)c1ccccc1 [Dimepiperate],ORYSA Visual Injury (%) ‘M202’ Obs,[1]; safener 280 g ai/ha alone,10%
CCOC(=O)c1nc(C(Cl)(Cl)Cl)n(-c2ccc(Cl)cc2Cl)n1 [Fenchlorazole-ethyl],‘M202’ ORYSA Visual Injury (%) Obs,[1],0.0%
"FC(F)(F)C(=NOCC1OCCO1)c1ccc(Cl)cc1 [Fluxofenim, 1-(4-chlorophenyl)-2,2,2-trifluoroethanone O-(1,3-dioxolan-2-ylmethyl)oxime]",‘M202’ ORYSA Visual Injury (%) Obs,[1],3.3%
"CC1(C)OC(c2ccco2)CN1C(=O)C(Cl)Cl (centres unmarked) [Furilazole, 3-(dichloroacetyl)-5-(2-furanyl)-2,2-dimethyl-oxazolidine]",‘M202’ ORYSA Visual Injury (%) Obs,[1],3.3%
same,ORYSA Visual Injury (%) ‘Lemont’ Obs,[1]; safener 70 g ai/ha alone,0%
"N#C/C(=N\OCC1OCCO1)c1ccccc1 [Oxabetrinil, (αZ)-α-[(1,3-dioxolan-2-yl)methoxyimino]-benzeneacetonitrile]",Visual Injury (%) CYPDI Obs,[2]; 35 g ai/ha,0%
same,Visual Injury (%) CYPDI Obs,[2]; 70 g ai/ha,0%
same,Visual Injury (%) CYPDI Obs,[2]; 140 g ai/ha,0%
same,Visual Injury (%) CYPDI Obs,[2]; 280 g ai/ha,0%
same,Visual Injury (%) ECHCO Obs,[3]; 35 g ai/ha,0%
same,Visual Injury (%) ECHCO Obs,[3]; 70 g ai/ha,0%
same,Visual Injury (%) ECHCO Obs,[3]; 140 g ai/ha,0%
same,Visual Injury (%) ECHCO Obs,[3]; 280 g ai/ha,0%
same,Visual Injury (%) ‘Lemont’ ORYSA Obs,"[1]; alone, 35 g ai/ha",0%
same,Visual Injury (%) ‘Lemont’ ORYSA Obs,"[1]; alone, 70 g ai/ha",15%
same,Visual Injury (%) ‘Lemont’ ORYSA Obs,"[1]; alone, 140 g ai/ha",0%
same,Visual Injury (%) ‘Lemont’ ORYSA Obs,"[1]; alone, 280 g ai/ha",10%
same,Visual Injury (%) SEBEX Obs,[4]; 35 g ai/ha,0%
same,Visual Injury (%) SEBEX Obs,[4]; 70 g ai/ha,0%
same,Visual Injury (%) SEBEX Obs,[4]; 140 g ai/ha,0%
same,Visual Injury (%) SEBEX Obs,[4]; 280 g ai/ha,0%
